According to ChEMBL document CHEMBL3525917, “Species difference in the mechanism of nonlinear pharmacokinetics of E2074, a novel sodium channel inhibitor, in rats, dogs, and monkeys” (Drug Metab Dispos, 2013):

Experiments:
[1] = Cmax in Sprague-Dawley rat at 30 mg/kg, po; format: ADME, organism-based; design: dose 30 mg/kg, route oral; conditions: in vivo
Liver microsome [2] = assay: (§1) Drug metabolism in beagle dog liver microsomes after 30 mins by biphasic component Michaelis-Menten plot analysis; format: ADME, Canis lupus familiaris; conditions: microsomes, 0.5 h
[3] = as §1; format: ADME, Canis lupus familiaris; conditions: beagle, liver microsomes
[4] = Tmax in cynomolgus monkey at 3 mg/kg, po in presence of ketoconazole; format: ADME, organism-based, Macaca fascicularis; design: dose 3 mg/kg, route oral; conditions: in vivo
[5] = Ratio of drug level in blood to plasma in cynomolgus monkey at 0.25 uM after 10 mins by equilibrium dialysis technique; format: ADME, Macaca fascicularis; conditions: blood and plasma
[6] = AUC in cynomolgus monkey at 3 mg/kg, po; format: ADME, organism-based, Macaca fascicularis; design: dose 3 mg/kg, route oral; conditions: plasma
Cynomolgus monkey [7] = assay: Ratio of dose normalized AUC in cynomolgus monkey at 3 mg/kg, po in presence of ketoconazole to dose normalized AUC in cynomolgus monkey at 3 mg/kg, po; format: ADME, organism-based, Macaca fascicularis; conditions: in vivo
[8] = Tmax in Sprague-Dawley rat at 30 mg/kg, po; format: ADME, organism-based; design: dose 30 mg/kg, route oral; conditions: in vivo
[9] = Volume of distribution at steady state in cynomolgus monkey at 1 mg/kg, iv; format: ADME, organism-based, Macaca fascicularis; design: dose 1 mg/kg, route intravenous; conditions: in vivo, read-out: Vdss
Cynomolgus monkey [10] = assay: Ratio of dose normalized AUC in cynomolgus monkey at 1 mg/kg, iv in presence of ketoconazole to dose normalized AUC in cynomolgus monkey at 1 mg/kg, iv; format: ADME, organism-based, Macaca fascicularis; conditions: in vivo
[11] = Cmax in wild-type mouse at 3 mg/kg, po; format: ADME, organism-based; design: dose 3 mg/kg, route oral; conditions: in vivo
[12] = Fraction unbound in beagle dog plasma at 0.25 uM by equilibrium dialysis technique; format: ADME, cell-free, Canis lupus familiaris
[13] = Fraction unbound in cynomolgus monkey plasma at 0.25 uM by equilibrium dialysis technique; format: ADME, cell-free, Macaca fascicularis
[14] = Clearance in beagle dog at 1 mg/kg, iv; format: ADME, organism-based, Canis lupus familiaris; design: dose 1 mg/kg, route intravenous; conditions: in vivo
[15] = Oral bioavailability in cynomolgus monkey at 10 mg/kg; format: ADME, organism-based, Macaca fascicularis; conditions: in vivo
[16] = Half life in Sprague-Dawley rat at 1 mg/kg, iv; format: ADME, organism-based; design: dose 1 mg/kg, route intravenous; conditions: in vivo
Canis familiaris [17] = organism: Canis familiaris; assay: Hepatic blood clearance in beagle dog; format: ADME, organism-based, Canis lupus familiaris; conditions: in vivo
[18] = Volume of distribution at steady state in Sprague-Dawley rat at 1 mg/kg, iv; format: ADME, organism-based; design: dose 1 mg/kg, route intravenous; conditions: in vivo, read-out: Vdss
[19] = Fraction unbound in Sprague-Dawley rat plasma at 0.25 uM by equilibrium dialysis technique; format: ADME, cell-free
Cynomolgus monkey [20] = assay: Hepatic blood clearance in cynomolgus monkey; format: ADME, organism-based, Macaca fascicularis; conditions: in vivo
[21] = Tmax in MDR1A/1B knock-out mouse at 3 mg/kg, po; format: ADME, organism-based; design: dose 3 mg/kg, route oral; conditions: in vivo
[22] = Volume of distribution at steady state in beagle dog at 1 mg/kg, iv; format: ADME, organism-based, Canis lupus familiaris; design: dose 1 mg/kg, route intravenous; conditions: in vivo, read-out: Vdss
[23] = Half life in cynomolgus monkey at 1 mg/kg, iv; format: ADME, organism-based, Macaca fascicularis; design: dose 1 mg/kg, route intravenous; conditions: in vivo
[24] = Tmax in beagle dog at 3 mg/kg, po; format: ADME, organism-based, Canis lupus familiaris; design: dose 3 mg/kg, route oral; conditions: in vivo
Canis familiaris [25] = organism: Canis familiaris; assay: Unbound intrinsic clearance in beagle dog; format: ADME, organism-based, Canis lupus familiaris; conditions: in vivo
[26] = Clearance in cynomolgus monkey at 1 mg/kg, iv in presence of ketoconazole; format: ADME, organism-based, Macaca fascicularis; design: dose 1 mg/kg, route intravenous; conditions: in vivo
[27] = Oral bioavailability in Sprague-Dawley rat at 10 mg/kg; format: ADME, organism-based; conditions: in vivo
[28] = AUC in beagle dog at 3 mg/kg, po; format: ADME, organism-based, Canis lupus familiaris; design: dose 3 mg/kg, route oral; conditions: plasma
[29] = Blood clearance in Sprague-Dawley rat; format: ADME, organism-based
[30] = Fraction unbound in cynomolgus monkey liver microsomes at 0.25 uM by equilibrium dialysis technique; format: ADME, Macaca fascicularis
[31] = AUC in cynomolgus monkey at 10 mg/kg, po in presence of ketoconazole; format: ADME, organism-based, Macaca fascicularis; design: dose 10 mg/kg, route oral; conditions: plasma
[32] = AUC in wild-type mouse at 3 mg/kg, po; format: ADME, organism-based; design: dose 3 mg/kg, route oral; conditions: plasma
[33] = target: T1, MDR1A (ABCB1, P-glycoprotein) (Mus musculus, UniProt P21447); assay: Activity of mouse MDR1A expressed in pig LLC-PK1 cells assessed as permeability from basolateral to apical side at 1 uM after 2 hrs; format: ADME, cell-based; conditions: read-out: permeability
T1 sequence (P21447 whole entry): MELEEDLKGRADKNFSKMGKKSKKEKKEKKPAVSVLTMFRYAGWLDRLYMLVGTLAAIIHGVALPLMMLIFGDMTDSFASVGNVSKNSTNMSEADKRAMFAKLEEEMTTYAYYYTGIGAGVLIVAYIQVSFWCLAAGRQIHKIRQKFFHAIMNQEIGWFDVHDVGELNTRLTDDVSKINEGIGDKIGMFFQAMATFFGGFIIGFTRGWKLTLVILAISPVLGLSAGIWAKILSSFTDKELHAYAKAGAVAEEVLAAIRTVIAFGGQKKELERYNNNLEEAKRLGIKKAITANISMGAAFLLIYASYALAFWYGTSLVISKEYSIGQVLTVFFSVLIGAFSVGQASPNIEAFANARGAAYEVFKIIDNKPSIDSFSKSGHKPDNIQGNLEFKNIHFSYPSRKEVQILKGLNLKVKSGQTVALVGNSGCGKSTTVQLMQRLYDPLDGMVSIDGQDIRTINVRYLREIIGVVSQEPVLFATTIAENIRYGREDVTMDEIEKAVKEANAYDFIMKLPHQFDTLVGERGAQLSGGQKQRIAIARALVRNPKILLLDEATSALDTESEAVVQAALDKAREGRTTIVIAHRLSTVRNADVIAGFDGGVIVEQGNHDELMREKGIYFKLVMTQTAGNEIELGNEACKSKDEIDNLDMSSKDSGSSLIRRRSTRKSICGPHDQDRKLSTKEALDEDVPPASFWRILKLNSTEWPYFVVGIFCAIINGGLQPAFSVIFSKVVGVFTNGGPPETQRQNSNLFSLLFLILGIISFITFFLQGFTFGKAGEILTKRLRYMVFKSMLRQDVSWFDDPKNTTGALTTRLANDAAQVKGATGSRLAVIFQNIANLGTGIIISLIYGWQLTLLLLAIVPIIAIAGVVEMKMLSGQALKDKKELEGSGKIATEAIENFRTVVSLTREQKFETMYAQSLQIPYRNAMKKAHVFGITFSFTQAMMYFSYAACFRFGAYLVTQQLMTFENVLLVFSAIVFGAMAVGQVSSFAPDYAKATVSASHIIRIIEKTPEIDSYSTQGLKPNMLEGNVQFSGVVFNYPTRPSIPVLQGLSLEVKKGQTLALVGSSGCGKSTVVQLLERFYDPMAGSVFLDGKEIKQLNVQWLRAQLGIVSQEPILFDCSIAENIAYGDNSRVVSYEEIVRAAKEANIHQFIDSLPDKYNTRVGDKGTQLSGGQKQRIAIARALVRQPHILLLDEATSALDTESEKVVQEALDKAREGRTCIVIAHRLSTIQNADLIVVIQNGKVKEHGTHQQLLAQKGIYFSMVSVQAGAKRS

[34] = Clearance in Sprague-Dawley rat at 1 mg/kg, iv; format: ADME, organism-based; design: dose 1 mg/kg, route intravenous; conditions: in vivo
[35] = Fraction unbound in Sprague-Dawley rat liver microsomes at 0.25 uM by equilibrium dialysis technique; format: ADME
[36] = Cmax in beagle dog at 10 mg/kg, po; format: ADME, organism-based, Canis lupus familiaris; design: dose 10 mg/kg, route oral; conditions: in vivo
[37] = Tmax in beagle dog at 10 mg/kg, po; format: ADME, organism-based, Canis lupus familiaris; design: dose 10 mg/kg, route oral; conditions: in vivo
[38] = target: T1, MDR1A (ABCB1, P-glycoprotein); assay: Activity of mouse MDR1A expressed in pig LLC-PK1 cells assessed as permeability from apical to basolateral side at 1 uM after 2 hrs; format: ADME, cell-based; conditions: read-out: permeability
Liver microsome [39] = assay: (§2) Drug metabolism in Sprague-Dawley rat liver microsomes after 7 mins by Michaelis-Menten plot analysis; format: ADME; conditions: microsomes, 7 min
[40] = as §2; format: ADME; conditions: Sprague-Dawley, liver microsomes
[41] = Cmax in MDR1A/1B knock-out mouse at 3 mg/kg, po; format: ADME, organism-based; design: dose 3 mg/kg, route oral; conditions: in vivo
[42] = Ratio of drug level in brain to plasma in MDR1A/1B knock-out mouse at 3 mg/kg, po; format: ADME, organism-based; design: dose 3 mg/kg, route oral; conditions: brain and plasma
[43] = Volume of distribution at steady state in cynomolgus monkey at 1 mg/kg, iv in presence of ketoconazole; format: ADME, organism-based, Macaca fascicularis; design: dose 1 mg/kg, route intravenous; conditions: in vivo, read-out: Vdss
[44] = Half life in cynomolgus monkey at 10 mg/kg, po; format: ADME, organism-based, Macaca fascicularis; design: dose 10 mg/kg, route oral; conditions: in vivo
[45] = Blood clearance in cynomolgus monkey; format: ADME, organism-based, Macaca fascicularis
[46] = Tmax in cynomolgus monkey at 3 mg/kg, po; format: ADME, organism-based, Macaca fascicularis; design: dose 3 mg/kg, route oral; conditions: in vivo
Rattus norvegicus = organism: Rattus norvegicus; assay: Hepatic blood clearance in Sprague-Dawley rat; format: ADME, organism-based; conditions: in vivo
[47] = AUC in cynomolgus monkey at 1 mg/kg, iv in presence of ketoconazole; format: ADME, organism-based, Macaca fascicularis; design: dose 1 mg/kg, route intravenous; conditions: plasma
[48] = AUC in Sprague-Dawley rat at 10 mg/kg, po; format: ADME, organism-based; design: dose 10 mg/kg, route oral; conditions: plasma
Cynomolgus monkey [49] = assay: Ratio of dose normalized Cmax in cynomolgus monkey at 3 mg/kg, po in presence of ketoconazole to dose normalized Cmax in cynomolgus monkey at 3 mg/kg, po; format: ADME, organism-based, Macaca fascicularis; conditions: in vivo
[50] = Oral bioavailability in beagle dog at 10 mg/kg; format: ADME, organism-based, Canis lupus familiaris; conditions: in vivo
[51] = Cmax in cynomolgus monkey at 10 mg/kg, po; format: ADME, organism-based, Macaca fascicularis; design: dose 10 mg/kg, route oral; conditions: in vivo
[52] = Drug metabolism in beagle dog intestinal microsomes; format: ADME, Canis lupus familiaris, Intestine, Microsome
[53] = AUC in beagle dog at 10 mg/kg, po; format: ADME, organism-based, Canis lupus familiaris; design: dose 10 mg/kg, route oral; conditions: plasma

Cc1nn(C[C@H](F)CN2C3CCC2CC(OCc2cccc(F)c2)C3)c(=O)n1C (some centres undefined)
Cmax [1]: 1.36 µg/mL
Vmax (Liver microsome [2]): 0.72 nmol/min/mg
Km at 0.5 h [3]: 21.5 µM
Tmax [4]: 60 min
blood plasma ratio at 10 min, 0.25 µM [5]: 1.01
AUC [6]: 0.18 µg·h/mL
Ratio (Cynomolgus monkey [7]): 1
Tmax [8]: 15 min
Vd [9]: 3.07 L/kg
Ratio (Cynomolgus monkey [10]): 1
Cmax [11]: 0.11 µg/mL
fraction unbound at 0.25 µM [12]: 0.601
fraction unbound at 0.25 µM [13]: 0.676
clearance [14]: 1.7 L/h/kg
bioavailability [15]: 20.9%
half-life [16]: 51 min
CLH (Canis familiaris [17]): 1.83 L/h/kg
Vd [18]: 2.54 L/kg
fraction unbound at 0.25 µM [19]: 0.675
CLH (Cynomolgus monkey [20]): 2 L/h/kg
Tmax [21]: 15 min
Vd [22]: 1.84 L/kg
half-life [23]: 116 min
Tmax [24]: 30 min
CL free (Canis familiaris [25]): 208 µL/min/mg
clearance [26]: 1.22 L/h/kg
bioavailability [27]: 5.3%
AUC [28]: 0.02 µg·h/mL
clearance [29]: 3.6 L/h/kg
fraction unbound at 0.25 µM [30]: 1
AUC [31]: 7.09 µg·h/mL
AUC [32]: 0.23 µg·h/mL
Papp B→A at 2 h, 1 µM [33]: 304 nm/s
clearance [34]: 3.21 L/h/kg
fraction unbound at 0.25 µM [35]: 1
Cmax [36]: 1.07 µg/mL
Tmax [37]: 30 min
Papp A→B at 2 h, 1 µM [38]: 96.7 nm/s
Vmax (Liver microsome [39]): 1.42 nmol/min/mg
Km at 7 min [40]: 7.23 µM
Cmax [41]: 0.1 µg/mL
Kp [42]: 8.3
Vd [43]: 3.29 L/kg
half-life [44]: 177 min
clearance [45]: 1.34 L/h/kg
Tmax [46]: 60 min
CLH (Rattus norvegicus): 3.19 L/h/kg
AUC [47]: 0.82 µg·h/mL
AUC [48]: 0.17 µg·h/mL
Ratio (Cynomolgus monkey [49]): 1
bioavailability [50]: 43.7%
Cmax [51]: 0.47 µg/mL
Drug metabolism [52]: metabolite_not_detected
AUC [53]: 2.73 µg·h/mL
